Results: patent US20230295171A1, “FUSED HETEROAROMATIC PYRROLIDINONES” (Calithera Biosciences, Inc., priority 2009, published 2023)

Each molecule was assayed against SYK (Homo sapiens (Human), UniProt P43405) (assay: SYK inhibition assay (phosphorylation of FAM-labeled SYK-specific substrate, Caliper LC-3000)). Details: SYK kinase domain (residues 356-635); 5FAM-KKKKEEIYFFFG-NH2 substrate, ATP, 60 min at RT; pIC50 = -log(IC50), IC50 molar.
Format: biochemical
Procedure: SYK protein is prepared from cDNA encoding human spleen tyrosine kinase and is expressed in insect cells using a baculovirus expression vector. […] The recombinant bacmid DNA is isolated and transfected into Sf9 insect cells. Recombinant virus is harvested 72 h after transfection. High titer viral stock is prepared by infecting Sf9 cells at a multiplicity of infection (MOI) of approximately 0.01. A suspension of Sf9 cells (10 L) is infected with recombinant virus (MOI=5) and is incubated in a Wave Bioreactor (GE-Healthcare) for 48 h. The cells are harvested and stored at −80° C.
To purify the expressed protein, the frozen Sf9 cells (10 L) are broken into small (<1 cm) particles and suspended in a lysis buffer (300 mL) containing 20 mM Tris (pH 7.6), 0.25 mM TCEP, 100 mM NaCl, 5% glycerol and a protease inhibitor. The suspension is stirred at RT until completely thawed, lysed an additional 2-4 min on a rotary blade homogenizer, and then centrifuged at 4200 g for 1 h. Following centrifugation, the supernatant is poured through cheese cloth and combined with a nickel chelating resin (Probond Resin™, Invitrogen) which is pre-equilibrated in a wash buffer containing 10 mM Tris (pH 7.6), 0.25 mM TCEP, 300 mM NaCl, 5% glycerol, and 20 mM imidazole. The mixture is agitated for 3 h in a cold room and then centrifuged at 900 g for 10 min. The resin is dispersed in wash buffer (50 mL), centrifuged for 10 min at 900 g, re-dispersed in a small amount of wash buffer (5 mL), and then pour into a disposable Poly-Prep chromatography column, through which wash buffer is passed by gravity until no protein is observed in coomassie buffer (about 120 mL of wash buffer). An elution buffer (30 mL) containing 10 mM HEPES (pH 7.4), 150 mM NaCl, 10% glycerol, 5 mM DTT, and 400 mM imidazole is used to elute the SYK protein from the resin. The eluate is concentrated (5 mL) and further purified on a Superdex 200 column (1.2 mL/min for 160 min, 10 mM HEPES (pH 7.4), 10 mM NaCl, 10 mM MgCl, 0.1 mM EDTA, and 0.25 mM TCEP). The chromatographed fractions are run on SDS-PAGE and the requisite fractions are pooled and concentrated. Final delivery buffer is 10 mM HEPES (pH 7.4), 10 mM Methione, 150 mM NaCl, 10% glycerol, 5 mM DTT.
SYK inhibition is determined using a black 384 well plate format in buffer containing 50 mM HEPES, 10 mM NaCl, 10 mM MgCl2, 0.2 mM EDTA, 0.01% EDA (Brij® 35), 1 mM DTT, and 0.1 mg/ml BSA at pH 7.3. Each test compound is prepared in DMSO using 2-fold serial dilutions for 11 data points, which are added to the buffer so that each dilution contains 3% DMSO. […] The reaction mixture is incubated at RT for 60 min, and quenched by adding 50 mM Hepes, 30 mM EDTA, 0.1% Triton X-100 (pH 7.3). To quantify the fluorescent-labeled substrate and product following reaction, the test plate is loaded on a Caliper LC-3000, which measures percent of conversion by microfluidic-based separation. Corresponding IC50 values are calculated by non-linear curve fitting of the compound concentrations and percent of inhibition to the standard IC50 equation and reported as pIC50, i.e., −log(IC50), where IC50 is molar concentration.

Structure (SMILES)	SYK Inhibition (pIC50)
Cc1cccc(Nc2nc(N[C@@H]3CCCC[C@@H]3O)nc3c2C(=O)NC3)c1 (relative stereo) [Example 11, cis-2-(2-Hydroxycyclohexylamino)-4-(m-tolylamino)-6,7-dihydro-5H-pyrrolo[3,4-d]pyrimidin-5-one]	5.9
Cc1cccc(Nc2nc(N[C@@H]3COC[C@@H]3N)cc3c2C(=O)NC3)c1 (relative stereo) [Example 58, 6-(cis-4-Aminotetrahydrofuran-3-ylamino)-4-(m-tolylamino)-1H-pyrrolo[3,4-c]pyridin-3(2H)-one]	5.8
Cn1cc(-c2nc(N[C@@H]3CC(F)(F)C[C@@H]3N)c(F)c3c2C(=O)NC3)cn1 (relative stereo) [Example 66, 6-(cis-2-Amino-4,4-difluorocyclopentylamino)-7-fluoro-4-(1-methyl-1H-pyrazol-4-yl)-1H-pyrrolo[3,4-c]pyridin-3(2H)-one]	6.3
Cn1cc(-c2nc(N[C@@H]3CCCC(F)(F)[C@@H]3N)c(F)c3c2C(=O)NC3)cn1 (relative stereo) [Example 67, 6-(cis-2-Amino-3,3-difluorocyclohexylamino)-7-fluoro-4-(1-methyl-1H-pyrazol-4-yl)-1H-pyrrolo[3,4-c]pyridin-3(2H)-one]	7.4
N[C@@H]1[C@H](Nc2nc(-c3cnn(C(F)F)c3)c3c(c2F)CNC3=O)CCCC1(F)F (relative stereo) [Example 68, 6-(cis-2-Amino-3,3-difluorocyclohexylamino)-4-(1-(difluoromethyl)-1H-pyrazol-4-yl)-7-fluoro-1H-pyrrolo[3,4-c]pyridin-3(2H)-one]	7.0
N[C@@H]1[C@H](Nc2nc(-c3cnn(C4CC4)c3)c3c(c2F)CNC3=O)CCCC1(F)F (relative stereo) [Example 69, 6-(cis-2-amino-3,3-difluorocyclohexylamino)-4-(1-cyclopropyl-1H-pyrazol-4-yl)-7-fluoro-1H-pyrrolo[3,4-c]pyridin-3(2H)-one]	6.8
Cc1cccc(Nc2nc(N[C@H]3COCC[C@H]3N)cc3c2C(=O)NC3)c1 [Example 86, 6-((3R,4R)-4-Aminotetrahydro-2H-pyran-3-ylamino)-4-(m-tolylamino)-1H-pyrrolo[3,4-c]pyridin-3(2H)-one]	5.6
